Assays:
[1] = system: patient-derived TNBC tumors; assay: Orthotopic patient-derived xenograft (PDX) model, tumor growth; assay type: in vivo; conditions: NSG mice
Source text: The procedures for the establishment of breast cancer-bearing xenograft models were modified from previous publications and approved by the Taipei Medical University (TMU) Institutional Animal Care and Use Committee (IACUC No. LAC- 2021-0546) and the Joint Institutional Review Board of Taipei Medical University (N201812005). Overall, 4- to 6-week-old NOD.Cg-PrkdcscidIl2rgtm1Wjl/SzJ (NSG) female mice purchased from BioLASCO Taiwan Co., Ltd. (Taipei, Taiwan) were housed in specific pathogen-free rooms with ad libitum feeding and 12 h light–dark cycle. Patient-derived TNBC tumors were microscopically considered for a hypervascular background and frequent mitosis features, and triple-negative results for estrogen receptor, progesterone receptor and human epidermal growth factor receptor 2 (HER2). After a week of acclimatization, patient-derived TNBC tumors dissected into 3 × 3 × 3 mm^3 were implanted using puncture needle in fat pads between the third and fourth mammary glands for each mouse.
Tumor growth curves were generated by measuring tumor diameters and then calculating based on the same equation described above. Finally, the mice were sacrificed on day 23 after the first dose of treatments. Plasma, tumors and major organs (heart, liver, kidney, spleen and lung) were collected for toxicity assessment and metastasis evaluation.

MDA-MB-231 cells [2] = assay: DNA fragmentation (agarose gel); assay type: cell-based, human; conditions: MDA-MB-231, 24 h
Method: DNA samples suspended in DNA lysis buffer containing 1.0 mM Tris hydrochloride (pH 7.5), 10 mM EDTA (pH 8.0), 10 mM sodium chloride and 0.5% Triton X-100.

MCF-7 = assay: MTT cell viability assay on MCF-7; assay type: cell-based, human; conditions: for reduction in cell viability (antiproliferative effect): MCF-7, 80 μM
Method: (§1) Human cancer cell lines, including MDA-MB-231, MCF-7, COLO205 and SK-OV-3, used in this study were purchased from American Type Culture Collection (ATCC, Manassas, VA, USA). All cell cultures were maintained in a 5% CO2-containing incubator at 37 °C. Triple-negative breast cancer cell line MDA-MB-231 and estrogen receptor-positive breast cancer cells MCF-7 were cultured in Dulbecco’s Modified Eagle Medium/Nutrient Mixture F-12 medium (DMEM/F12, Thermo Fisher Scientific Inc., Waltham, MA, USA) supplemented with 1% HyClone Penicillin-Streptomycin 100X solution (Cytiva, Marlborough, MA, USA) and 10% (v/v) fetal bovine serum (Thermo Fisher Scientific Inc., Waltham, MA, USA). COLO205 colon cancer cells and SK-OV-3 ovarian cancer cells were cultured in Roswell Park Memorial Institute (RPMI) 1640 medium (Thermo Fisher Scientific Inc., Waltham, MA, USA) containing the same supplements as described above.
(§2) Cell viability was evaluated using MTT assay. […] A viable cell count was determined by adding MTT reagent (3-(4,5-Dimethyl-2-thiazolyl)-2,5-diphenyl-2H-tetrazolium bromide (MTT; SERVA, Heidelberg, Germany) at a concentration of 5 mg/mL in PBS followed by measurement of the absorbance at 570 nm for each well detected by μQuant™ universal microplate spectrophotometer (BioTek, Winowski, VT, USA). The assessment procedures were followed under the manufacturer’s instructions. The final results were represented as mean values in the same experimental group detected by a microplate reader.

MDA-MB-231 = assay: MTT cell viability assay on MDA-MB-231; assay type: cell-based, human; conditions: for reduction in cell viability: MDA-MB-231, 20 μM; for IC50: MDA-MB-231, MTT assay, 48 h
Method: as §1, §2

MDA-MB-231 cells [3] = assay: Reactive oxygen species detection (DCF-DA, flow cytometry); assay type: cell-based, human; conditions: MDA-MB-231, 8 h
Method: DCF-DA is highly fluorescent and can label ROS for quantitative assessment using flow cytometer with excitation/emission at 485 nm/535 nm. To harvest and collect adherent and suspended cells, we first collected suspended cells from supernatant by centrifuging at 3000 rpm for 5 min at 4 °C and then adding trypsin to detach these adherent cells in the 6-well plate, followed by removing suspended cells via centrifugation. Both cell pellets after centrifugation were collected and re-suspended in PBS for subsequent quantitative analysis of ROS productions from cells treated either with CDDP or TFBPC using flow cytometer by gating the positive area in the histogram.

[4] = biological target: bovine serum albumin (BSA) (Bos taurus, UniProt P02769); assay: UV-Vis spectrum of BSA-drug complex; assay type: binding; conditions: 250 μM BSA in PBS pH 7.4, 20-640 μM
Sequence of bovine serum albumin (BSA) (P02769 25-607): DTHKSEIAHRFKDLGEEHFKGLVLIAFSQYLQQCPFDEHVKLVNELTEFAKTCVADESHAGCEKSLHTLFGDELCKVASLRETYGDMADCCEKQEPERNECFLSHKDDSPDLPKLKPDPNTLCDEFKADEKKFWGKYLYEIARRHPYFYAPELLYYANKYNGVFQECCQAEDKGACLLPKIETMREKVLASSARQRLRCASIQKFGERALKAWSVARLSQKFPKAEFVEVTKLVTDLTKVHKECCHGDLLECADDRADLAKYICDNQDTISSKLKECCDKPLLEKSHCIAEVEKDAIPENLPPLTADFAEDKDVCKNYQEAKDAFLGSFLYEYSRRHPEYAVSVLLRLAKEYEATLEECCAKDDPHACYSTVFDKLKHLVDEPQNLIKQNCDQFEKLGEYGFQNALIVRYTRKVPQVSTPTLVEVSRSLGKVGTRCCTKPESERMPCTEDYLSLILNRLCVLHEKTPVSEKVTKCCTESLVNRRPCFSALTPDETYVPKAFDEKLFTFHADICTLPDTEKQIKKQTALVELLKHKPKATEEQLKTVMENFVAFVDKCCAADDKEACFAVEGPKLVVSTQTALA
Source text: Absorption between the wavelengths of 220 nm and 500 nm was detected by measuring absorbance every 2 nm via Thermo Varioskan Flash microplate reader (Thermo Fisher Scientific Inc., Waltham, MA, USA). The maximal absorbance of BSA at 278 nm was marked to highlight the spectrum in pure BSA without chemical intercalation.

HCT-15 = assay: MTT cell viability assay on HCT-15 (supplement); assay type: cell-based; conditions: 20 to 80 μM, 24 or 48 h, supplementary figure
Method: Figure S11. TFBPC and glycyrrhizic acid micelles (GAM)-encapsulated TFBPC […]
NSG mice (N = 16) with implantation of MDA-MB-231 cells on the left flank were intraperitoneally administrated with PBS (5 mL/kg), TFBPC (5 mg/kg) or glycyrrhizic acid micelles (GAM)-encapsulated TFBPC (5 mg/kg) once per week and four times total in the whole course of treatment. Tumor volume of each animal was measured by caliper for monitoring its tumor growth and then sacrificed 49 days after the first dose of treatment. Mean ± SD. **** p < 0.0001. […]
colorectal cancers. Cisplatin and three platinum-based analogues, including (4, 4-3F) PtCl2 (A), TFBPC (B) and (4, 4-5F) PtCl2 (C), were assessed for cell viability using MTT assay. MDA-MB-231 breast cancers cells (D), COLO205 (E) and HCT-15 (F) colorectal cancer cells were given various concentrations of cisplatin or analogues ranging from 20 to 80 μM for 24 or 48 h. Results were shown in mean ± SD and statistically analyzed by one-way ANOVA and Tukey’s post hoc test. * p < 0.05, ** p < 0.01, *** p < 0.001, **** p < 0.0001. […]

[5] = HE staining of major organs (CDX model); assay type: in vivo, mice; conditions: xenograft model
Source text: Formalin-fixed and paraffin-embedded 4 μm sections of tumor and organs from cell-bearing xenograft models were stained in hematoxylin and eosin to provide an overall morphology of tissues. Tumor sections were dewaxed with UltraClear™ (J.T.Baker, Phillipsburg, NJ, USA), rehydrated in a descending series of alcohol and water and had antigens unmasked in pH 6 or pH 9 Epitope Retrieval Solution (Leica Biosystems Inc., Wetzlar, Germany) in a microwave pressure cooker. […] VisUCyte HRP Polymer Antibody against rabbit IgG (VC003-025; R&D Systems, Minneapolis, MN, USA) and mouse IgG (VC001-025; R&D Systems, Minneapolis, MN, USA) were targeted to primary antibodies. Liquid DAB+ system from Agilent Technologies (Santa Clara, CA, USA) was applied as a chromogen for visualizing. Slides were mounted after hematoxylin counterstaining. All images were scanned using Motic EasyScan Pro 6 pathology slide scanner (Motic China Group Co., Ltd., Hong Kong, China).

Compound | average tumor volume vs. control ([1]; 2.11 or 5 mg/kg i.v. weekly x4) | DNA fragmentation (MDA-MB-231 cells [2]) | reduction in cell viability (antiproliferative effect) (MCF-7) [%] | IC50 (MCF-7; MCF-7, MTT assay, 48 h) [µM] | reduction in cell viability (MDA-MB-231) [%] | IC50 (MDA-MB-231) [µM] | average tumor volume and weight compared among groups ([1]; 5 mg/kg i.v. weekly x4, day 23) | ROS production (MDA-MB-231 cells [3]) | IC50 Values (MCF-7; MCF-7, MTT assay, 48 h) | UV absorbance of BSA at 278 nm vs. concentration [4] | cell viability of HCT-15 cells (HCT-15) | pathophysiological changes in heart, kidneys, liver, lungs and spleen (HE staining) [5]
N.N.[Cl][Pt][Cl] [CDDP, Cis-diamineplatinum(II) dichloride] | no statistical difference | no sign of cisplatin-induced PS expression or DNA fragmentation | 19 | > 80 | 10 | > 80 |  |  |  |  |  | 
FC(F)C(F)(F)COCc1ccnc(-c2cc(COCC(F)(F)C(F)F)ccn2)c1.[Cl][Pt][Cl] [TFBPC] |  | DNA fragmentation confirms TFBPC-induced apoptosis | 28 | > 80 | 88 | 3.86 | smallest size in volume | apparent increase in ROS production | resistant | positively correlated | statistically reduced cell viability | No obvious pathophysiological changes

From PMC9031226, “Preclinical Therapeutic Assessment of a New Chemotherapeutics [Dichloro(4,4’-Bis(2,2,3,3-Tetrafluoropropoxy) Methyl)-2,2’-Bipryridine) Platinum] in an Orthotopic Patient-Derived Xenograft Model of Triple-Negative Breast Cancers” (Pharmaceutics, 2022)
